Laboratory results as given in PubChem BioAssay (NCI).
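Protocol summary: plate cells (96-well), add compound at 5 concentrations, incubate 48 h, interpolate endpoints linearly. Definition used: TGI = concentration required for complete inhibition of growth.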

Columns and labels:
Assay in all cases: DTP human tumour cell line panel, 48 h
[1] = test system: K-562 leukemia
[2] = test system: M14 melanoma
[3] = test system: 786-0 renal
[4] = test system: NCI-H226 lung
[5] = test system: HOP-62 NSCLC
[6] = test system: NCI-H23 lung
[7] = test system: HCT-116 colon
[8] = test system: OVCAR-5 ovarian
[9] = test system: IGROV1 ovarian
[10] = test system: MDA-N
[11] = test system: A498 renal
[12] = test system: CAKI-1 renal
[13] = test system: SK-OV-3 ovarian
[14] = test system: A549 NSCLC
[15] = test system: RPMI-8226 leukemia
[16] = test system: NCI-H522 lung
[17] = test system: EKVX NSCLC
[18] = test system: NCI/ADR-RES ovarian
[19] = test system: SF-268 CNS
[20] = test system: KM12 colon
[21] = test system: ACHN renal
[22] = test system: OVCAR-3 ovarian
[23] = test system: SR leukemia
[24] = test system: SN12C renal
[25] = test system: PC-3 prostate
[26] = test system: SK-MEL-28 melanoma
[27] = test system: COLO 205 colon
[28] = test system: SNB-19 CNS
[29] = test system: T-47D breast
[30] = test system: TK-10 renal
[31] = test system: SK-MEL-5 melanoma
[32] = test system: CCRF-CEM leukemia
[33] = test system: HCC-2998 colon
[34] = test system: MOLT-4 leukemia
[35] = test system: UO-31 renal
[36] = test system: DU-145 prostate
[37] = test system: RXF 393 renal
[38] = test system: SF-295 CNS
[39] = test system: MDA-MB-435
[40] = test system: SW-620 colon
[41] = test system: MALME-3M melanoma
[42] = test system: UACC-257 melanoma
[43] = test system: BT-549 breast
[44] = test system: HOP-92 NSCLC
[45] = test system: MCF7 breast
[46] = test system: NCI-H460 lung
[47] = test system: LOX IMVI melanoma
[48] = test system: HCT-15 colon
[49] = test system: OVCAR-4 ovarian
[50] = test system: HS 578T breast
[51] = test system: SK-MEL-2 melanoma
[52] = test system: SNB-75 CNS
[53] = test system: U251 CNS
[54] = test system: OVCAR-8 ovarian
[55] = test system: UACC-62 melanoma
[56] = test system: HT29 colon
[57] = test system: MDA-MB-231 breast
[58] = test system: HL-60(TB) leukemia
[59] = test system: SF-539 CNS

Work on Cc1cc(NC[C@H](O)[C@H](O)[C@H](O)CO)c(Sc2cc(=O)[nH]c(=O)[nH]2)cc1C yielded a TGI [1] of over 62.5 µM, a TGI [2] of over 62.5 µM and a TGI [3] of over 62.5 µM. For the same compound, the TGI [4] was over 62.5 µM, the TGI [5] was over 62.5 µM and the TGI [6] was over 62.5 µM. It also gave a TGI [7] of over 62.5 µM, a TGI [8] of over 62.5 µM and a TGI [9] of over 62.5 µM. The TGI [10] was over 62.5 µM, the TGI [11] was over 62.5 µM and the TGI [12] was over 62.5 µM. It also gave a TGI [13] of over 62.5 µM, a TGI [14] of over 62.5 µM and a TGI [15] of over 62.5 µM. For the same compound, the TGI [16] was over 62.5 µM, the TGI [17] was over 62.5 µM and the TGI [18] was over 62.5 µM. It also gave a TGI [19] of over 62.5 µM, a TGI [20] of over 62.5 µM and a TGI [21] of over 62.5 µM. It also gave a TGI [22] of over 62.5 µM, a TGI [23] of over 62.5 µM and a TGI [24] of over 62.5 µM. For the same compound, the TGI [25] was over 62.5 µM, the TGI [26] was over 62.5 µM and the TGI [27] was over 62.5 µM. It also gave a TGI [28] of over 62.5 µM, a TGI [29] of over 62.5 µM and a TGI [30] of over 62.5 µM. For the same compound, the TGI [31] was over 62.5 µM, the TGI [32] was over 62.5 µM and the TGI [33] was over 62.5 µM. It also gave a TGI [34] of over 62.5 µM, a TGI [35] of over 62.5 µM and a TGI [36] of over 62.5 µM. It also gave a TGI [37] of over 62.5 µM, a TGI [38] of over 62.5 µM and a TGI [39] of over 62.5 µM. The TGI [40] was over 62.5 µM, the TGI [41] was over 62.5 µM and the TGI [42] was over 62.5 µM. The TGI [43] was over 62.5 µM, the TGI [44] was over 62.5 µM and the TGI [45] was over 62.5 µM. For the same compound, the TGI [46] was over 62.5 µM, the TGI [47] was over 62.5 µM and the TGI [48] was over 62.5 µM. The TGI [49] was over 62.5 µM, the TGI [50] was over 62.5 µM and the TGI [51] was over 62.5 µM. The TGI [52] was over 62.5 µM, the TGI [53] was over 62.5 µM and the TGI [54] was over 62.5 µM. The TGI [55] was over 62.5 µM, the TGI [56] was over 62.5 µM and the TGI [57] was over 62.5 µM.

With CC(=C(C(N)=O)C(N)=O)C1C=C(c2cccs2)CC(c2ccc(Cl)cc2)=C1O (configuration not stated) the TGI [1] was over 100 µM, the TGI [2] was over 100 µM and the TGI [3] was over 100 µM. It also gave a TGI [4] of over 100 µM, a TGI [5] of over 100 µM and a TGI [6] of over 100 µM. It also gave a TGI [7] of over 100 µM, a TGI [8] of over 100 µM and a TGI [9] of over 100 µM. The TGI [10] was over 100 µM, the TGI [11] was over 100 µM and the TGI [12] was over 100 µM. It also gave a TGI [13] of over 100 µM, a TGI [14] of over 100 µM and a TGI [15] of over 100 µM. It also gave a TGI [16] of over 100 µM, a TGI [17] of over 100 µM and a TGI [18] of over 100 µM. It also gave a TGI [19] of over 100 µM, a TGI [58] of over 100 µM and a TGI [20] of over 100 µM. For the same compound, the TGI [21] was over 100 µM, the TGI [22] was over 100 µM and the TGI [23] was 81.6 µM. For the same compound, the TGI [24] was over 100 µM, the TGI [25] was over 100 µM and the TGI [26] was over 100 µM. For the same compound, the TGI [27] was over 100 µM, the TGI [28] was over 100 µM and the TGI [29] was over 100 µM. The TGI [30] was over 100 µM, the TGI [31] was over 100 µM and the TGI [32] was 79.4 µM. It also gave a TGI [33] of over 100 µM, a TGI [34] of over 100 µM and a TGI [35] of over 100 µM. It also gave a TGI [36] of over 100 µM, a TGI [37] of over 100 µM and a TGI [38] of over 100 µM. It also gave a TGI [39] of over 100 µM, a TGI [40] of over 100 µM and a TGI [42] of over 100 µM. The TGI [43] was over 100 µM, the TGI [44] was over 100 µM and the TGI [45] was over 100 µM. It also gave a TGI [46] of over 100 µM, a TGI [47] of 40.4 µM and a TGI [48] of over 100 µM. The TGI [49] was 78.8 µM, the TGI [50] was over 100 µM and the TGI [51] was over 100 µM. The TGI [52] was over 100 µM, the TGI [53] was over 100 µM and the TGI [54] was over 100 µM. The TGI [55] was over 100 µM, the TGI [56] was over 100 µM and the TGI [57] was over 100 µM.

O=C(O)c1cccc(N=Nc2c(S(=O)(=O)O)ccc3c2C(=O)c2ccccc2C3=O)c1O showed a TGI [1] of over 100 µM, a TGI [2] of over 100 µM and a TGI [59] of over 100 µM. It also gave a TGI [3] of over 100 µM, a TGI [4] of over 100 µM and a TGI [5] of over 100 µM. For the same compound, the TGI [6] was over 100 µM, the TGI [7] was over 100 µM and the TGI [8] was over 100 µM. The TGI [9] was over 100 µM, the TGI [10] was over 100 µM and the TGI [11] was over 100 µM. The TGI [12] was over 100 µM, the TGI [13] was over 100 µM and the TGI [14] was over 100 µM. The TGI [15] was over 100 µM, the TGI [16] was over 100 µM and the TGI [17] was over 100 µM. For the same compound, the TGI [18] was over 100 µM, the TGI [19] was over 100 µM and the TGI [58] was over 100 µM. It also gave a TGI [20] of over 100 µM, a TGI [21] of over 100 µM and a TGI [22] of over 100 µM. It also gave a TGI [23] of over 100 µM, a TGI [24] of over 100 µM and a TGI [25] of over 100 µM. For the same compound, the TGI [26] was over 100 µM, the TGI [27] was over 100 µM and the TGI [28] was over 100 µM. It also gave a TGI [29] of over 100 µM, a TGI [30] of over 100 µM and a TGI [31] of over 100 µM. It also gave a TGI [32] of over 100 µM, a TGI [34] of over 100 µM and a TGI [35] of over 100 µM. It also gave a TGI [36] of over 100 µM, a TGI [37] of over 100 µM and a TGI [38] of over 100 µM. The TGI [39] was over 100 µM, the TGI [40] was over 100 µM and the TGI [41] was over 100 µM. For the same compound, the TGI [42] was over 100 µM, the TGI [43] was over 100 µM and the TGI [44] was over 100 µM. For the same compound, the TGI [45] was over 100 µM, the TGI [46] was over 100 µM and the TGI [47] was over 100 µM. It also gave a TGI [48] of over 100 µM, a TGI [49] of over 100 µM and a TGI [50] of over 100 µM. The TGI [51] was over 100 µM, the TGI [52] was over 100 µM and the TGI [53] was over 100 µM. The TGI [54] was over 100 µM, the TGI [55] was over 100 µM and the TGI [56] was over 100 µM. The TGI [57] was over 100 µM.

Compound COC(=O)C1=C(O)C(C(=O)OC)[C@]2(O)[C@H](C(=O)OC)[C@H]1C[C@@H](c1c(Cl)cccc1Cl)[C@H]2C(=O)OC (some centres not stated) has a TGI [1] of 6.92 µM, a TGI [2] of 2.88 µM and a TGI [59] of 3.78 µM. It also gave a TGI [3] of 3.48 µM, a TGI [4] of 4.87 µM and a TGI [5] of 10.8 µM. The TGI [6] was 5.44 µM, the TGI [7] was 3.42 µM and the TGI [9] was 5.99 µM. For the same compound, the TGI [10] was 3.02 µM, the TGI [11] was 4.15 µM and the TGI [12] was 11.3 µM. The TGI [13] was 14.2 µM, the TGI [14] was 6.21 µM and the TGI [15] was 3.38 µM. It also gave a TGI [17] of 18.4 µM, a TGI [18] of 7.01 µM and a TGI [19] of 12.9 µM. It also gave a TGI [58] of 18.7 µM, a TGI [20] of 8.6 µM and a TGI [21] of 4.86 µM. The TGI [22] was 7.87 µM, the TGI [23] was 4.87 µM and the TGI [24] was 5.2 µM. The TGI [25] was 10.5 µM, the TGI [26] was 7.55 µM and the TGI [27] was 4.37 µM. For the same compound, the TGI [28] was 5.13 µM, the TGI [29] was 23 µM and the TGI [31] was 3.02 µM. The TGI [33] was 3.03 µM, the TGI [34] was 5.31 µM and the TGI [35] was 3.01 µM. It also gave a TGI [36] of 8.2 µM, a TGI [37] of 3.92 µM and a TGI [38] of 7.57 µM. For the same compound, the TGI [39] was 3.3 µM, the TGI [40] was 11 µM and the TGI [41] was 5.25 µM. The TGI [42] was 6.08 µM, the TGI [43] was 6.99 µM and the TGI [44] was 14 µM. For the same compound, the TGI [45] was 12.3 µM, the TGI [46] was 6.55 µM and the TGI [47] was 3.69 µM. For the same compound, the TGI [48] was 4.49 µM, the TGI [49] was 30.4 µM and the TGI [50] was 27.3 µM. The TGI [51] was 3.33 µM, the TGI [52] was 8.7 µM and the TGI [53] was 2.99 µM. The TGI [54] was 3.66 µM, the TGI [55] was 5.56 µM and the TGI [56] was 7.16 µM. It also gave a TGI [57] of 12.9 µM.
